Reference: article PMC11722533, “Discovery and mechanism of a highly selective, antifungal acetyl CoA synthetase inhibitor” (Research Square, 2025)
Values belong to the molecule of their own block, whether it stands above or below them.

What was measured:
[1] = target: T1, CnAcs1 (acetyl CoA synthetase) (Cryptococcus neoformans, UniProt J9VFT1); test: X-ray co-crystal structure; assay type: biochemical; settings: cited from earlier work
T1 construct: gene CNAG_00797; His-tagged recombinant CnAcs1 expressed in E. coli
T1 sequence (J9VFT1 1-680): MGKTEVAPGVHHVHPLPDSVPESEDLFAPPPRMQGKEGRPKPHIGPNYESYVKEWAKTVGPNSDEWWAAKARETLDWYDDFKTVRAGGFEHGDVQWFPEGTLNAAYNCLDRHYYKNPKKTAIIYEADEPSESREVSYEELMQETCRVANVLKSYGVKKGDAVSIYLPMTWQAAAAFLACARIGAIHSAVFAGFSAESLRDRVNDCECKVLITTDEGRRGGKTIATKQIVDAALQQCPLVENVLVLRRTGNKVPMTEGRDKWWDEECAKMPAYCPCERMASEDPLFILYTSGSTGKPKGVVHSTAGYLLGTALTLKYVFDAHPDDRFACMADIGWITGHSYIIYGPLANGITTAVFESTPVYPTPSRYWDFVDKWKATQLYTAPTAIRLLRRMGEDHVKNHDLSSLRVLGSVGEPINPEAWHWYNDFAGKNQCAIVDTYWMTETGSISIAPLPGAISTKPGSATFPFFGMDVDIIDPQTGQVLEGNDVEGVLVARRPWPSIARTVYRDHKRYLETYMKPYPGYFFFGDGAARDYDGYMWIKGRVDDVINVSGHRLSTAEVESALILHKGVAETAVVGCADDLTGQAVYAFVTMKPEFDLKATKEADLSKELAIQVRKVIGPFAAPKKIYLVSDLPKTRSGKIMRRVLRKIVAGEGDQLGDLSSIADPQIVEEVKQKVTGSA
From the text: X-ray co-crystal structure on CnAcs1 (acetyl CoA synthetase) | we obtained an X-ray crystal structure of CnAcs1 bound to the cyclopropyl-AMP ester

[2] = target: Cryptococcus neoformans Acs1 (acetyl CoA synthetase) (C. neoformans); test: mass photometry; single molecule, in solution, to low concentrations; with and without supra-inhibitory isoxazole 1 (apparent size unchanged)
[3] = target: Cryptococcus neoformans Acs1 (acetyl CoA synthetase) (C. neoformans); test: crystal structure; co-crystal of CnAcs1 (10 mg/mL in 20 mM NaCl, 20 mM Tris pH 8.5, 1 mM TCEP) with 2 mM isoxazole 1; sitting drop vapor diffusion at 18 °C; PDB 9CD8
[4] = target: T1, CnAcs1 (acetyl CoA synthetase); test: coupled pyrophosphate-release enzyme assay; assay type: biochemical

Molecule: Nc1ncnc2c1ncn2[C@@H]1O[C@H](COP(=O)(O)OC2CC2)[C@@H](O)[C@H]1O [cyclopropyl-AMP]
IC50 [1]: 9 µM

stoichiometry N [2]: 3
stoichiometry N [3]: 3
Molecule: Cryptococcus neoformans Acs1 (acetyl CoA synthetase) (enzyme)

IC50 [4]: 2.8 µM
Molecule: O=C(NNC(=O)c1csnn1)c1ccc(Cl)cc1 [MMV084978]
